Test results as given in patent US9801856B2, “Composition of a 5-HT2A serotonin receptor modulator useful for the treatment of disorders related thereto” (Arena Pharmaceuticals, Inc., priority 2008, dated 2017).
Entries after “also recorded” stand apart in the source; their conditions may differ. Values belong to the compound of their own block, whether it stands above or below them.

How the values were obtained:
[1] = Effect of milling and compression upon APD125 Form I (PXRD); format: physicochemical
Protocol: Micronized APD125 Form I, was ground using a mortar and pestle, with samples withdrawn at 1-min, 5-min and 10-min time points for PXRD analyses to evaluate the impact of grinding upon the solid-state form of APD125 Form I. PXRD patterns were obtained pre- and post-milling. Additionally, micronized APD125 Form I, was compressed at 2 kp, 5 kp and 10 kp for 1 min per sample using a Carver press. The samples were then removed from the Carver press and lightly broken up using a mortar and pestle, prior to PXRD analysis to evaluate the impact of compression upon the solid-state form of APD125 Form I. PXRD patterns were obtained pre- and post-compression.
(§1) PXRD measurements were obtained using a Philips (PANalytical) X'Pert PRO theta/theta diffractometer (EQ 0233) equipped with an X'Celerator RTMS detector and utilizing copper Kα radiation, operating at 45 kV and 40 mA. The instrument radius was 239.5 mm, the mask filter was 20 mm, the soller slit was 0.04 radians, and a nickel filter and sample spinning were used during data acquisition. The application and instrument control software used were X'Pert Data Collector®, version 2.0c and XPERT-PRO®, version 1.6, respectively. The samples were scanned from 5° to 40° 2θ in continuous mode, using a step size of 0.0167° 2θ.

[2] = Methyl cellulose optimization: Form I to Form II conversion in water pastes (PXRD); format: physicochemical
Protocol: In a small scintillation vial, 152.13 mg of micronized APD125 Form I, was spiked with sufficient deionized water to make a paste; the weight of the water added, 844.60 mg was recorded, and the resulting mixture was stirred using a spatula to obtain a paste. The resulting sample, post-collection of an initial PXRD pattern, was capped, wrapped in tinfoil and stored at 40° C. until the next day, when a second PXRD pattern was obtained.
Using another small scintillation vial, 2.1183 g of micronized APD125 Form I, was mixed with 3.3619 g of a 0.5% w/v methyl cellulose to obtain a paste, which was immediately sampled for PXRD analysis to verify starting APD125 solid-state form, post-methyl cellulose addition. The remaining sample in the scintillation vial was split into two portions, placed in capped, parafilm-wrapped scintillation vials, which were then wrapped in tinfoil and stored at 40° C. and room temperature, respectively. […]
APD125 micronized Form I/PVP (1:8) blend, weighing 3.0081 g and containing 0.5% w/w methyl cellulose, was mixed with 3.71277 g of water to form a paste. After sampling the paste for an initial PXRD pattern, the remaining paste was split into two portions, placed in capped, parafilm-wrapped scintillation vials, which were then wrapped in tinfoil and stored at 40° C. and room temperature, respectively. PXRD patterns were collected at initial (t=0), 1-day, 7-day and 21-day time points.
For each blend, materials were dispensed (minus magnesium stearate) into a glass vial and blended for about 5 minutes. Magnesium stearate was added and the mixture was blended an additional 2 minutes. The final blend was compacted into standard round concave tablets ( 5/16″ diameter) with a total tablet weight of 200 mg and hardness of 10 kp using a Carver press. For each batch of tablets, several were crushed using a mortar and pestle to obtain a fine powder, from which a small sample was taken for PXRD analysis to confirm the initial APD125 polymorphic form. The remaining powder was weighed into a Qorpak® bottle, and ca. 50% w/w deionized water was added. The resulting mixture was stirred using a micro-spatula to wet the powder and form a paste. A Teflon® lid was screwed on tightly, and the prepared samples were stored in a 40° C. oven.
as §1, with “respectively. The API-based paste samples were” for “respectively. The samples were”, “of 0.0167° 2θ and a counting time of 40.005 seconds. The tablet granulation samples were scanned from 2° to 15° 2θ in continuous mode, using a step size of 0.0167° 2θ and a counting time of 1063.625 s.” for “of 0.0167° 2θ.”

[3] = target: T1, 5-HT2A serotonin receptor (Homo sapiens, UniProt P28223); conditions: cited from earlier work
[4] = system: 5-HT2 receptor; conditions: glaucoma patients; cited from earlier work
[5] = system: JC virus; conditions: cited from earlier work
[6] = target: T2, 5-HT2A (Rattus norvegicus, UniProt P14842); conditions: in vivo; cited from earlier work
[7] = target: T2, 5-HT2A; set-up: host or cells: diabetic rats, in vivo; conditions: spontaneously hypertensive rats; cited from earlier work
[8] = Aqueous solubility of APD125; format: physicochemical
[9] = Stability of APD125 in solution; format: physicochemical; conditions: in solution at 25° C.
[10] = target: T1, 5-HT2A serotonin receptor; assay: 5-HT2A serotonin receptor inverse agonist activity; format: biochemical
[11] = target: T1, 5-HT2A serotonin receptor; assay: Phase 1 trials: waking EEG; format: in vivo, humans
[12] = target: T1, 5-HT2A serotonin receptor; assay: Afternoon nap model of insomnia in normal volunteers; format: in vivo, humans
[13] = target: T1, 5-HT2A serotonin receptor; assay: Phase 2 trial: sleep maintenance versus placebo; format: in vivo, humans
[14] = target: T3, 5-HT2A (Homo sapiens, UniProt P28223); set-up: host or cells: patients, in vivo; conditions: 24 months of treatment; cited from earlier work
[15] = target: T2, 5-HT2A; set-up: host or cells: diabetic rats, in vivo; conditions: rats, cited from earlier work
[16] = target: T3, 5-HT2A; set-up: host or cells: human patients, in vivo; conditions: humans, lumbar disc herniation; cited from earlier work

T1 sequence (P28223 whole entry): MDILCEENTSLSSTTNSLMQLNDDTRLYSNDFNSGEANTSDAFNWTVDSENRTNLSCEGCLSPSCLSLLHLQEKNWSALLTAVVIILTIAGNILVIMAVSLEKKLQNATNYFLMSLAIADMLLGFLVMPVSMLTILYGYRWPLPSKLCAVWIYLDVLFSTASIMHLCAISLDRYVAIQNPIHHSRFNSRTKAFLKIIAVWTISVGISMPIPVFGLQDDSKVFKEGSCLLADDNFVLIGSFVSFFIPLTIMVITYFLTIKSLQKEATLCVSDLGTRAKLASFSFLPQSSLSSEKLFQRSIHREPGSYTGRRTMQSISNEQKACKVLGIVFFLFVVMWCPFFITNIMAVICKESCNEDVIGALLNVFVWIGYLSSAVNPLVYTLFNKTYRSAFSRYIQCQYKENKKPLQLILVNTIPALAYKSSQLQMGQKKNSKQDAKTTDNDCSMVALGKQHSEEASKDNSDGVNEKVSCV
T2 sequence (P14842 whole entry): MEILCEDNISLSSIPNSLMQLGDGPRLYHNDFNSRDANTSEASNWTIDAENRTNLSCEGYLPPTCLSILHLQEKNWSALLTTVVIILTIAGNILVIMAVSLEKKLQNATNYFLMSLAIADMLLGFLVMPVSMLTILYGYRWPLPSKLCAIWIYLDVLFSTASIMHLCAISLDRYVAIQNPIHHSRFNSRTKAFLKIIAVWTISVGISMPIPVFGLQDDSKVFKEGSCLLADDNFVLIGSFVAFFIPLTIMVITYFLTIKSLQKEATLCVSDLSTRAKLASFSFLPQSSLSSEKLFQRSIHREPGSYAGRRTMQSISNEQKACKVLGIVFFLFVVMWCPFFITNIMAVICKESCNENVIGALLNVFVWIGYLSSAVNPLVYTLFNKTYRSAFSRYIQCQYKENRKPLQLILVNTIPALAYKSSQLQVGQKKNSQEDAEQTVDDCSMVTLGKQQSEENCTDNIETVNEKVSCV
T3 sequence (P28223 whole entry): as the sequence (P28223 whole entry) above

- polymorphic form by PXRD ([2]; aqueous 0.5% w/w methyl cellulose at 40° C. after 10 days (FIG. 8, text)): no evidence of conversion to Form II
- polymorphic form by PXRD ([2]; aqueous 0.5% w/w methyl cellulose, room temperature and 40° C. after 16 days (FIG. 8 legend)): substantially converted to Form II
- polymorphic form by PXRD ([2]; paste in water alone at 40° C.): converted to Form II within 24 hours
- polymorphic form by PXRD ([2]; paste in water alone at room temperature and 40° C. after 24 h (FIG. 9 legend)): substantially converted to Form II
- polymorphic form by PXRD ([2]; suspended in aqueous 0.5% w/w methyl cellulose, 21 days at room temperature): did not convert to Form II
Compound: COc1ccc(NC(=O)Nc2ccc(F)cc2F)cc1-c1c(Br)cnn1C [APD125 Form I, 1-[3-(4-bromo-2-methyl-2H-pyrazol-3-yl)-4-methoxy-phenyl]-3-(2,4-difluoro-phenyl)-urea]
- PXRD pattern after compression ([1]; compressed at 2 kp, 5 kp and 10 kp): all substantially comprise Form I; also recorded: consistent with APD125 Form I
- PXRD pattern after grinding ([1]; mortar and pestle for 1 minute, 5 minutes and 10 minutes, listed as micronized APD125 Form I): all substantially comprise Form I; also recorded: No significant changes in the PXRD patterns were observed

Compound: O=C(c1ccc(F)cc1)C1CCN(CCn2c(=O)[nH]c3ccccc3c2=O)CC1 [ketanserin]
- activity at 5-HT2A [3]: inverse agonist activity
- IOP [4]: significantly lower IOP
- JC virus infection of human glial cells [5]: inhibited
- protection during heatstroke [6]: protect against circulatory shocks, intracranial hypertension and cerebral ischemia during heatstroke
- blood pressure [7]: stabilize blood pressure

- solubility ([8]; aqueous buffer, phosphate buffer (about pH 7)): ≤ 10 µg/mL
- solubility ([8]; deionized water, water): ≤ 10 µg/mL
- solubility ([8]; saline (about 0.9% NaCl solution), saline or isotonic): ≤ 10 µg/mL
- solubility ([8]; simulated gastric fluid, 0.01 N HCl (about pH 2)): ≤ 10 µg/mL
- stability in solution [9]: somewhat labile
- dose of maximal effects on waking EEG [11]: 40 to 80 mg
- effects on waking EEG [11]: vigilance-lowering effects
- time of peak effects after dosing ([11]; waking EEG): 2 to 4 h
- REM sleep ([12]; human, in vivo): at the expense of REM sleep
- microarousals, number of sleep stage shifts and number of awakenings after sleep onset ([12]; human, in vivo): decreased
- sleep onset latency ([12]; human, in vivo): not decreased
- measurements of sleep maintenance ([13]; compared to placebo): statistically significant improvements
Compound: COc1ccc(NC(=O)Nc2ccc(F)cc2F)cc1-c1c(Br)cnn1C [APD125, 1-[3-(4-bromo-2-methyl-2H-pyrazol-3-yl)-4-methoxy-phenyl]-3-(2,4-difluoro-phenyl)-urea]
- activity at the 5-HT2A serotonin receptor [10]: potent and selective 5-HT2A serotonin receptor inverse agonist
- slow wave sleep and associated parameters ([12]; primarily during the early part of sleep): increased slow wave sleep and associated parameters in a dose-dependent manner
- next day cognitive effects ([13]; in vivo): without any limiting next day cognitive effects

Compound: COc1cccc(CCc2ccccc2OCC(CN(C)C)OC(=O)CCC(=O)O)c1 (stereo not shown) [sarpogrelate]
- IOP [4]: significantly lower IOP
- urinary albumin excretion level [14]: significantly reduced
- thermal induced pain ([15]; intraperitoneal administration): significant analgesic effect
- inflammatory pain ([15]; intrathecal or intraperitoneal administration): significant analgesic effect
- lower back pain, leg pain and numbness associated with sciatica [16]: effective treatment

Compound: Cc1nc2sccn2c(=O)c1CCN1CCC(=C(c2ccc(F)cc2)c2ccc(F)cc2)CC1 [ritanserin]
- activity at 5-HT2A [3]: inverse agonist activity
- JC virus infection of human glial cells [5]: inhibited
